Entries after “also recorded” stand apart in the source; their conditions may differ.
Legend:
Assay type in all cases: cell-based
[1] = molecular target: human D3 dopamine receptors (Homo sapiens, UniProt P35462); experiment: Forskolin-dependent adenylyl cyclase inhibition assay
[2] = molecular target: human D2 receptors expressed in CHO cells (Homo sapiens, UniProt P14416); experiment: Mitogenic assay; settings: relative to quinpirole
[3] = molecular target: human D2 dopamine receptors (Homo sapiens, UniProt P14416); experiment: Forskolin-dependent adenylyl cyclase inhibition assay
[4] = molecular target: human D3 receptors expressed in CHO cells (Homo sapiens, UniProt P35462); experiment: Mitogenic assay; settings: relative to quinpirole
human D3 receptors expressed in CHO cells, sequence (P35462 whole entry): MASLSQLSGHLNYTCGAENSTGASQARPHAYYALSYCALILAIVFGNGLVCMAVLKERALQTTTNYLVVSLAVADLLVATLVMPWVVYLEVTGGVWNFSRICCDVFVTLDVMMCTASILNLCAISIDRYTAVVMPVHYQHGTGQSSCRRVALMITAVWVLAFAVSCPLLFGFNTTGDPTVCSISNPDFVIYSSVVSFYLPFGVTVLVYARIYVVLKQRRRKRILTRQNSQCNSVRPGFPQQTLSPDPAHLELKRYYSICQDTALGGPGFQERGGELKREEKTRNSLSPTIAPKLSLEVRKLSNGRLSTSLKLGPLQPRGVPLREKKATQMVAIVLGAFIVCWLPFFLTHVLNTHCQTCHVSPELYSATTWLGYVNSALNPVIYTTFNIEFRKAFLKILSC

human D2 receptors expressed in CHO cells, sequence (P14416 whole entry): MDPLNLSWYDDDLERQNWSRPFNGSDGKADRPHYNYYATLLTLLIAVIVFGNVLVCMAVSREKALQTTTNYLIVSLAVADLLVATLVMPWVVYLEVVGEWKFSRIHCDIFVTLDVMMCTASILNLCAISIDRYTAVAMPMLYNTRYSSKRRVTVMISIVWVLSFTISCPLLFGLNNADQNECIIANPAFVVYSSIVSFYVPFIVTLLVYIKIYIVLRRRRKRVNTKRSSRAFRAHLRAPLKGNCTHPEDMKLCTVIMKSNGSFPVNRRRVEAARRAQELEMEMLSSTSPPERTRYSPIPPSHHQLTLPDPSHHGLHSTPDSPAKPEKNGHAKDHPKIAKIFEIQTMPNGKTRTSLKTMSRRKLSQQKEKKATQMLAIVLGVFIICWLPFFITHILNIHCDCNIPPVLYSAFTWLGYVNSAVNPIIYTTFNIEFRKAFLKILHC
human D3 dopamine receptors, sequence (P35462 whole entry): as the sequence (P35462 whole entry) above
human D2 dopamine receptors, sequence (P14416 whole entry): as the sequence (P14416 whole entry) above

| SMILES | efficacy in adenylyl cyclase inhibition assay (in words) [1] | intrinsic efficacy in mitogenic assay (in words) [2] | efficacy in adenylyl cyclase inhibition assay (in words) [3] | intrinsic efficacy in mitogenic assay (in words) [4] |
| --- | --- | --- | --- | --- |
| O=C(NCCCCN1CCN(c2cccc(Cl)c2Cl)CC1)c1ccc(-c2ccccn2)cc1 [CJB090, N-(4-(4-(2,3-dichlorophenyl)piperazin-1-yl)butyl)-4-(pyridin-2-yl)benzamide] | partial agonist | some activity | partial agonist | partial agonist; also recorded: some activity |
| O=C(NCCCCN1CCN(c2cccc(Cl)c2Cl)CC1)c1ccc2c(c1)Cc1ccccc1-2 [NGB 2904, reference compound] | antagonist | – | – | antagonist |
| O=C(NCCCCN1CCN(c2cccc(Cl)c2Cl)CC1)c1ccc(-c2cccnc2)cc1 [PG01042, N-(4-(4-(2,3-dichlorophenyl)piperazin-1-yl)butyl)-4-(pyridin-3-yl)benzamide] | strong agonist; also recorded: almost full agonist | partial mitogenic agonist | weak partial agonist | partial mitogenic agonist |

Now from value to compound:

| efficacy in adenylyl cyclase inhibition assay (in words) [1] | intrinsic efficacy in mitogenic assay (in words) [2] | efficacy in adenylyl cyclase inhibition assay (in words) [3] | intrinsic efficacy in mitogenic assay (in words) [4] | SMILES |
| --- | --- | --- | --- | --- |
| greatest efficacy | – | – | – | COc1ccccc1N1CCN(C/C=C/CNC(=O)c2ccc(-c3cccnc3)cc2)CC1 [PG 845, (E)-N-(4-(4-(2-methoxyphenyl)piperazin-1-yl)but-2-enyl)-4-(pyridin-3-yl)benzamide] |
| greatest efficacy | antagonist | – | antagonist | COc1ccccc1N1CCN(CCCCNC(=O)c2ccc(-c3cccnc3)cc2)CC1 [PG 848, N-(4-(4-(2-methoxyphenyl)piperazin-1-yl)butyl)-4-(pyridin-3-yl)benzamide] |

Reference: PMC3821045 (Synapse (New York, N.Y.), 2010)
